According to the supplement of paper PMC10307832:

Tests used:
Test in all cases: relative viability (nuclei count vs DMSO), 5 days (fraction); higher = more cells survive
AZ3146 + Pemetrexed = compound: CN1CCC(CC1)OC2=CC(=C(C=C2)NC3=NC=C4C(=N3)N(C(=O)N4C)C5CCCC5)OC [AZ3146] + Nc1nc2[nH]cc(CCc3ccc(C(=O)N[C@@H](CCC(=O)O)C(=O)O)cc3)c2c(=O)[nH]1 [Pemetrexed] (partner 0.2 µM)
In short: (§1)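 A single step with final 0.05% Triton X-100, 1% formaldehyde and 1 ug/ml Hoechst fixed the cells and stained nuclei 5 days after treatment. Lung cancer cell lines in 1536-well plates had been treated by pin tool the day after seeding with one drug alone or a fixed anchor-drug dose plus five library-drug doses (not always all listed) in √10 steps, and nuclei were counted on 4× images. Relative viability is the ratio of nuclei in treated wells to nuclei in vehicle wells, taken as the median of duplicate plates.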

AZ3146 + OSI-027 = compound: CN1CCC(CC1)OC2=CC(=C(C=C2)NC3=NC=C4C(=N3)N(C(=O)N4C)C5CCCC5)OC [AZ3146] + COc1cccc2cc(-c3nc([C@H]4CC[C@H](C(=O)O)CC4)n4ncnc(N)c34)[nH]c12 [OSI-027] (partner 0.5 µM)
In short: as §1

AZ3146 + Lapatinib = compound: CN1CCC(CC1)OC2=CC(=C(C=C2)NC3=NC=C4C(=N3)N(C(=O)N4C)C5CCCC5)OC [AZ3146] + CS(=O)(=O)CCNCc1ccc(-c2ccc3ncnc(Nc4ccc(OCc5cccc(F)c5)c(Cl)c4)c3c2)o1 [Lapatinib] (partner 2 µM)
In short: as §1

GSK-J4 + Foretinib = compound: CCOC(=O)CCNc1cc(N2CCc3ccccc3CC2)nc(-c2ccccn2)n1 [GSK-J4] + COc1cc2c(Oc3ccc(NC(=O)C4(C(=O)Nc5ccc(F)cc5)CC4)cc3F)ccnc2cc1OCCCN1CCOCC1 [Foretinib] (partner 0.25 µM)
In short: as §1

Cell Line	relative viability (AZ3146 + Pemetrexed; first compound 0.08 µM)	relative viability (AZ3146 + Pemetrexed; first compound 0.253 µM)	relative viability (AZ3146 + Pemetrexed; first compound 0.8 µM)	relative viability (AZ3146 + Pemetrexed; first compound 2.53 µM)	relative viability (AZ3146 + Pemetrexed; first compound 8 µM)	relative viability (AZ3146 + OSI-027; first compound 0.08 µM)	relative viability (AZ3146 + OSI-027; first compound 0.253 µM)	relative viability (AZ3146 + OSI-027; first compound 0.8 µM)	relative viability (AZ3146 + OSI-027; first compound 2.53 µM)	relative viability (AZ3146 + OSI-027; first compound 8 µM)	relative viability (AZ3146 + Lapatinib; first compound 0.08 µM)	relative viability (AZ3146 + Lapatinib; first compound 0.253 µM)	relative viability (AZ3146 + Lapatinib; first compound 0.8 µM)	relative viability (AZ3146 + Lapatinib; first compound 2.53 µM)	relative viability (AZ3146 + Lapatinib; first compound 8 µM)	relative viability (GSK-J4 + Foretinib; first compound 0.5 µM)	relative viability (GSK-J4 + Foretinib; first compound 1.581 µM)	relative viability (GSK-J4 + Foretinib; first compound 5 µM)	relative viability (GSK-J4 + Foretinib; first compound 15.81 µM)	relative viability (GSK-J4 + Foretinib; first compound 50 µM)
NCI-H1650	0.323	0.324	0.366	0.376	0.386	0.474	0.622	0.515	0.607	0.395	0.649	1.12	0.562	0.97	0.581	1.07	0.456	1.18	1.03	0.949
NCI-H1651	0.58	0.579	0.463	0.569	0.595	0.657	0.745	0.66	0.692	0.639	0.757	0.854	0.815	0.921	0.636	0.765	0.905	0.922	0.663	0.8
NCI-H1666	0.771	0.825	0.83	0.901	0.788	0.866	0.881	0.922	0.806	0.839	0.681	0.669	0.694	0.891	0.536	0.998	0.742	1.08	0.907	0.749
NCI-H1734	0.414	0.433	0.388	0.428	0.413	0.592	0.554	0.641	0.591	0.553	1.05	1.17	1.07	1.1	0.942	0.821	0.787	0.849	0.707	0.619
NCI-H1755	0.666	0.532	0.463	0.509	0.496	0.589	0.737	0.575	0.72	0.802	1.03	1.05	0.973	1.05	1.05	0.906	0.817	0.861	0.878	0.837
NCI-H1793	1.02	0.792	0.565	1.16	0.51	0.321	0.256	0.226	0.329	0.247	0.649	0.853	0.492	0.805	0.497	0.801	0.575	0.737	0.423	0.514
NCI-H1915	0.502	0.517	0.602	0.511	0.49	0.519	0.637	0.663	0.625	0.628	1.05	0.864	1.04	0.933	1.02	1.04	1.03	–	1.06	0.523
NCI-H1944	0.484	0.616	0.636	0.646	0.705	0.382	0.359	0.446	0.464	0.374	–	0.801	0.819	0.837	0.987	0.934	0.872	1.01	0.747	0.759
NCI-H1975	0.312	0.311	0.294	0.295	0.244	0.677	0.747	0.785	0.71	0.416	0.922	0.95	0.928	0.933	0.783	0.947	0.785	0.732	0.95	1.04
NCI-H1993	0.567	0.542	0.539	0.619	0.561	0.531	0.579	0.541	0.531	0.543	0.896	0.788	0.724	0.853	0.779	0.789	0.74	0.796	0.556	0.549
NCI-H2009	1.05	0.996	1.04	0.989	1.03	0.631	0.621	0.651	0.703	0.436	0.817	0.975	1.06	1.09	0.409	1.17	1.19	–	1.2	0.986
NCI-H2023	0.207	0.238	0.226	0.216	0.129	0.42	0.364	0.298	0.362	0.21	0.688	0.922	0.735	0.941	0.179	0.759	0.737	1.11	0.735	0.709
NCI-H2085	0.923	0.824	0.869	0.887	0.705	0.614	0.648	0.649	0.852	0.475	0.731	0.752	0.7	0.823	0.699	0.697	0.882	0.861	1.05	0.971
